{
  "source": "patent US20150258194A1",
  "about": "“MODULATING TRANSENDOTHELIAL MIGRATION AND RECRUITMENT OF GRANULOCYTES BY MODULATING C-MET PATHWAY” (VIB VZW, priority 2012, published 2015)",
  "key": {"[1]": {"test_system": "Met expression in neutrophils", "test": "Q-PCR / Western blot of Met expression in mouse neutrophils", "assay_type": "cell-based", "method": "Western blot: 2×10^6 bone marrow neutrophils from WT mice were stimulated with TCM, CCM, 100 ng/ml of murine TNF-α (or mock medium 0% FBS or 10% FBS as control) for 20 hours at 37° C. For the co-culture with HUVEC, a monolayer of HUVEC was stimulated for 4 hours with 5 ng/ml IL-1 at 37° C., and washed before neutrophil seeding. After 20 hours of stimulation, neutrophils were collected using Cell Dissociation Buffer, Enzyme Free, PBS-Based (Gibco). Cells were washed in PBS, lysed in 15 μl of a protease inhibitor mixture and incubated for 15 minutes on ice. The stock solution was obtained by dissolving one tablet of Complete Mini protease inhibitor mixture (CI, Roche) in 5 ml of PBS with 2 mM diisopropyl fluorophosphate (DFP; Acros Organics, Morris Plains, N.J.). After addition of an equal amount of 2×SDS sample buffer supplemented with 4% 2-mercaptoethanol, the lysates were boiled for 15 minutes and kept at -80° C. until use. 30×10^6 neutrophils purified from healthy volunteer blood and stimulated with A549-CM, 100 ng/ml of human TNF-α, 50 ng/ml LPS (or mock medium 10% FBS as control) for 20 hours. Cells were incubated with DFP 2.7 mM for 15' at 4° C., collected and washed in PBS, DFP 2.7 mM, CI 1X, and lysed in hot […] buffer (25% SDS 10%, 25% Tris-HCl pH 6.8) at 96° C. for 10'. Cell lysates were sonicated, cleared and quantified. 6× loading buffer was added before loading on the gel. The following antibodies were used: mouse anti-mouse Met (clone 3D4; Invitrogen), mouse anti-mouse β-actin (Santa Cruz), rabbit anti-human Met (clone D1C2-XP; Cell Signaling), HRP-conjugated anti-beta-tubulin (Abcam). Signal was visualized by Enhanced Chemiluminescent Reagents (ECL, Invitrogen) or West Femto by Thermo Scientific according to the manufacturer's instructions. Quantitative RT-PCR: for mRNA analysis, 1×10^5 or 3×10^5 mouse or human neutrophils, respectively, were incubated in normoxic (21% oxygen) or hypoxic condition (1% oxygen) or stimulated with TCM (plus 50 μg/ml Enbrel or human IgG when indicated), CCM, A549-CM, 100 ng/ml of murine or human TNF-α, 50 ng/ml LPS, or mock medium in 96-multiwell for 4 hours at 37° C. 2×10^5 HUVEC were seeded in 24-multiwell coated with 0.1% gelatin and stimulated with 5 ng/ml IL-1 in DMEM 10% FBS for 4 hours at 37° C. Cells were washed in PBS, collected in RLT buffer (QIAGEN®) and kept at -80° C. RNA was extracted with an RNase Micro kit (QIAGEN®) according to manufacturer's instructions. Reverse transcription to cDNA was performed with the SuperScript III Reverse Transcriptase (Invitrogen) according to manufacturer's protocol. […]"}, "[2]": {"test_system": "MET expression in human neutrophils", "test": "Q-PCR / Western blot of MET expression in human neutrophils", "assay_type": "cell-based", "details": "Enbrel", "method": "Western blot: 2×10^6 bone marrow neutrophils from WT mice were stimulated with TCM, CCM, 100 ng/ml of murine TNF-α (or mock medium 0% FBS or 10% FBS as control) for 20 hours at 37° C. For the co-culture with HUVEC, a monolayer of HUVEC was stimulated for 4 hours with 5 ng/ml IL-1 at 37° C., and washed before neutrophil seeding. After 20 hours of stimulation, neutrophils were collected using Cell Dissociation Buffer, Enzyme Free, PBS-Based (Gibco). Cells were washed in PBS, lysed in 15 μl of a protease inhibitor mixture and incubated for 15 minutes on ice. The stock solution was obtained by dissolving one tablet of Complete Mini protease inhibitor mixture (CI, Roche) in 5 ml of PBS with 2 mM diisopropyl fluorophosphate (DFP; Acros Organics, Morris Plains, N.J.). After addition of an equal amount of 2×SDS sample buffer supplemented with 4% 2-mercaptoethanol, the lysates were boiled for 15 minutes and kept at -80° C. until use. […] Cell lysates were sonicated, cleared and quantified. […] Quantitative RT-PCR: for mRNA analysis, 1×10^5 or 3×10^5 mouse or human neutrophils, respectively, were incubated in normoxic (21% oxygen) or hypoxic condition (1% oxygen) or stimulated with TCM (plus 50 μg/ml Enbrel or human IgG when indicated), CCM, A549-CM, 100 ng/ml of murine or human TNF-α, 50 ng/ml LPS, or mock medium in 96-multiwell for 4 hours at 37° C. […]"}},
  "data": [
    {"substance": "Enbrel [reference compound]", "values": [
      {"measurement": "Met induction in mouse neutrophils stimulated with TCM", "setting": "[1]; TCM, 50 μg/ml Enbrel", "result": "abolishment of Met induction"},
      {"measurement": "Met induction in neutrophils upon co-culture with activated ECs", "setting": "[1]; mouse neutrophils, HUVEC (IL-1), TNF-a blockade", "result": "prevented Met induction"},
      {"measurement": "Met induction in human neutrophils stimulated with A549-CM", "setting": "[2]", "result": "abolishment of Met induction"}
    ]}
  ]
}
